In patent publication US10016382B2, “Method for decreasing skeletal muscle damage and/or oxidative stress in mammals” (LONZA INC., priority 2014, dated 2018):
“And” between values parts separate entries of the source, which are not always exact repeats. Equal values may be shown once.

Tests used:
[1] = tested on: Labrador Retrievers; experiment: Time of final 15 mile endurance run, Example 1 (90 day study); format: in vivo, dog; conditions: Ex.1, 250 mg/d; for Final run time: 15 mile run at end of 90 day study, mean ± SEM
Experimental: Forty Labrador Retrievers were divided into two equal groups of twenty (11 males, 9 females) based on gender, body weight (“BW”), genetics, and lean mass and fed a low L-carnitine basal diet for a 90 day feeding period. The experimental dogs were fed the low L-carnitine basal for 10 days prior to the start of the study. Twenty of the Labs received 250 mg/day of L-carnitine (batch D22312) and 3.75 g of sugar and twenty of the Labs received 4 g/d of sugar. The dogs were scanned with a GE Prodigy DEXA system immediately prior to beginning of the study and the determined lean mass was utilized as a key component for helping assort the dogs equally between the control and L-carnitine group. A serum sample was obtained from each dog to determine a baseline value for blood biomarkers that were used to evaluate muscle damage and antioxidant status. The L-carnitine and control performance dogs were put through a weekly running program consisting of running sprint type shorter runs of higher intensity twice weekly (1200 yds/session increasing to 2400 yds/session over 10 wk period) and running endurance longer runs one time per wk (increasing from 5 miles/session to 10 miles per session over a 10 wk period). Each performance dog also wore the Actical activity monitor during the last endurance run. The dogs were put through a 15 mile run that included mud, water, tall grass, and swimming. The dogs were timed when they completed the course. The dogs were encouraged by kennel staff that rode along in a 4 wheel all terrain type vehicle during all of the endurance runs. […] Immediately following the 15 mile endurance run, each dog was placed in a kennel and evaluated for recovery time for body temperature (every 15 minutes for 2 hr) and heart rate (every 2 minutes for 14 minutes). Twenty four hours after test dogs ran the last 15 endurance run, post-run serum samples were taken to evaluate biomarkers for muscle damage and antioxidant status. Each test dog was also scanned with the GE Prodigy DEXA to determine body composition change that occurred during the course of the 13 wk study. Experimental Design: Forty Labrador Retrievers (labs) ranging in age from 1 to 3.5 years were incorporated into a two dietary treatment study. The two dietary treatments were based on feeding the test dogs the same low L-carnitine diet but adding 250 mg per day of L-carnitine to the L-carnitine group. Each of the L-carnitine dogs received the daily 250 mg of L-carnitine mixed with an additional 3.75 g sugar. The control dogs received 4 g of sugar each day. Twenty labs of equal gender, age, excitement level, frame size, body weight and genetic background were utilized for each of the two treatments. The labs utilized for the nutrition study were from a minimum of 6 different bitches. The lean body mass of the 40 test dogs was determined by scanning with the DEXA and the final key component utilized to assure equal groups. Prior to the start of the study, the labs were acclimated to the experimental diets for a minimum of 10 days. The labs were weighed at the beginning of the 90 day study and weighed every two weeks throughout the study. Feed consumption was determined daily by weighing feed provided and feed refusals. The quantity of food provided each dog on a daily basis was adjusted based on maintaining a minimum initial starting body weight throughout the study. […]

[2] = tested on: Labrador Retrievers; experiment: Oxygen consumption on treadmill (Oxymax open-circuit calorimeter), Example 2 part three; format: in vivo, dog
Experimental: Sixteen Labrador Retrievers ranging in age from 1.5 to 3 years were fed low carnitine basal diets with and without added L-carnitine for a 37 week period that included part one and two of the study. Eight (4 male and 4 female) of the test L-carnitine dogs were each fed 3.75 g sugar and 250 mg of L-carnitine, while the other eight dogs (4 male and 4 female) were fed only 4 g of sugar each day for the experimental period. The sixteen test dogs were fed the same diet for parts one, two, and three of the study. During part three of the study, the 16 test dogs were exclusively exercised on the industry sized canine treadmill. Initial Oxymax data was developed for each of the test dogs at various times and speeds in order to determine appropriate speeds on the treadmill required to achieve maximum VO2 concentration. The dogs were run for 15 minutes at 6.5 mph to determine VO2 max. The 16 test dogs were then ran at 50% VO2 max (equivalent to 4 mph) on the treadmill for 30 minutes to determine total energy expenditure (heat production). The system used to acquire information on volume of oxygen consumption and energy expenditure was an Open-Circuit calorimeter, which employed air from the surrounding environment. A mask specially designed for dogs was used to recover the gas sample and ventilate the dog. A small sample was drawn for gas analysis and dried to assure that the readings were made in a sample that was not under the influence of water vapor air exiting the chamber. The O2 and CO2 sensors were connected to software, and instant values of O2 and CO2 were measured. The 16 test dogs (8 L-carnitine dogs, 4 male and 4 female, and 8 control dogs, 4 male and 4 female) were exercised at a warm up speed of 2 mph for 5 minutes prior to running at VO2 max for 15 minutes at 6.5 mph. The next week, the test dogs ran again at a warm up speed of 2 mph for 5 minutes and then at 50% VO2 max for 30 minutes at 4 mph. The statistical analysis for gas exchange was analyzed by a factorial design 2×2 (2 genders and 2 diet treatments) and 2×2×2 (2 genders, 2 diets, 2 speeds) at p-value<0.05. The variable maximum oxygen consumption (Max VO2) was the highest amount of oxygen consumption during the exercise time. The mean oxygen consumption (Mean VO2) was the average amount of oxygen consumption during the exercise time. Oxygen consumption was reported on a per L/kg BW/h basis.

[3] = Ex.2 part three, 250 mg/d, females, 6.5 mph for 15 min (VO2 max)
[4] = Ex.2 part three, 250 mg/d, females, 50% VO2 max (4 mph, 30 min)
[5] = Ex.2 part three, 250 mg/d, females, average of combined speeds (4 mph and 6.5 mph)
[6] = combined speeds 4.0 and 6.5 (50% VO2 Max and VO2 Max), diet main effect, both genders
[7] = combined speeds 4.0 and 6.5 (50% VO2 Max and VO2 Max), female dogs
[8] = combined speeds 4.0 and 6.5 (50% VO2 Max and VO2 Max), male dogs
[9] = treadmill speed 4 for 30 min (50% VO2 Max), diet main effect, both genders
[10] = treadmill speed 4 for 30 min (50% VO2 Max), female dogs
[11] = treadmill speed 4 for 30 min (50% VO2 Max), male dogs
[12] = treadmill speed 6.5 for 15 min (VO2 Max), diet main effect, both genders
[13] = treadmill speed 6.5 for 15 min (VO2 Max), female dogs
[14] = treadmill speed 6.5 for 15 min (VO2 Max), male dogs

SMILES: C[N+](C)(C)C[C@H](O)CC(=O)[O-] [L-carnitine]
- Final run time ([1]; both sexes): 95.84 min and 95.84 ± 1.417^A n = 19 min
- Final run time ([1]; females): 98.50 ± 3.179 n = 8 min
- Final run time ([1]; males): 93.91 ± 0.4564^A n = 11 min
- 15-mile timed run, minutes faster than control ([1]; both sexes vs control dogs): 6.56 min
- 15-mile timed run, minutes faster than control ([1]; males vs control males): 8.69 min
- Max VO2 consumption [2, 3]: 60.8 mL/min/kg
- Mean VO2 [2, 3]: 3.11 L/kg/h
- Max VO2 consumption [2, 4]: 42 mL/min/kg
- Mean VO2 [2, 4]: 1.99 L/kg/h
- Maximum VO2 consumption [2, 5]: 50.3 mL/min/kg
- Mean VO2 consumption [2, 5]: 41.7 mL/min/kg
- Max VO2 [2, 6]: 2.80 L/kg/h
- Mean VO2 [2, 6]: 2.40 L/kg/h
- Max VO2 [2, 7]: 3.02 a L/Kg/h
- Mean VO2 [2, 7]: 2.50 a L/Kg/h
- Max VO2 [2, 8]: 2.57 ab L/Kg/h
- Mean VO2 [2, 8]: 2.31 ab L/Kg/h
- Max VO2 [2, 9]: 2.39 L/kg/h
- Mean VO2 [2, 9]: 1.98 L/kg/h
- Max VO2 [2, 10]: 2.52 L/kg/h
- Mean VO2 [2, 10]: 1.99 L/kg/h
- Max VO2 [2, 11]: 2.26 L/kg/h
- Mean VO2 [2, 11]: 1.97 L/kg/h
- Max VO2 [2, 12]: 3.27 L/kg/h
- Mean VO2 [2, 12]: 2.89 L/kg/h
- Max VO2 [2, 13]: 3.65 L/kg/h
- Mean VO2 [2, 13]: 3.11 L/kg/h
- Max VO2 [2, 14]: 2.89 L/kg/h
- Mean VO2 [2, 14]: 2.66 L/kg/h
